Experimental data as given in US7173019B2, “Linked cyclitols and their polysulfated derivatives” (The Australian National University, priority 2001, dated 2007).
Like-named read-outs stand apart in the source and are kept apart here.

What was measured:
[1] = molecular target: T1, human leukocyte Cathepsin G (Homo sapiens, UniProt P08311); experiment: Cathepsin G inhibition, fluorogenic substrate, 96 well assay; assay type: biochemical; settings: human leukocyte cathepsin G 100 ng, 37° C., 60 min, pH 6.6; read-out: Amount for 50% inhibition (converted)
T1 construct: human leukocyte Cathepsin G (100 ng protein); from tissue; host or cells: human leukocytes
T1 sequence (P08311 21-244): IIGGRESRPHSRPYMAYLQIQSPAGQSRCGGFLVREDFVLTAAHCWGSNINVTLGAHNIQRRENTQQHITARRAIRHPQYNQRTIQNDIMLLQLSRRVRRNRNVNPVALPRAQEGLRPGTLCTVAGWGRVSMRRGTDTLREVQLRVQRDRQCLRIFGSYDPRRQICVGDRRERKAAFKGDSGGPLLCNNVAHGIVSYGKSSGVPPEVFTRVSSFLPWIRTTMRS
Method: Cathepsin G activity was determined using a 96 well assay format in PVC microtitre U-bottom plates with activity determination by a fluorescence plate reader. Briefly, within a total incubation volume of 40 μl, human leukocyte Cathepsin G (100 ng protein) was added to a mixture of inhibitor and the fluorogenic substrate MeOSuc-ala-ala-pro-phe-AMAC in 50 mM-NaOAc buffer, pH 6.6 containing 50 mM NaCl and 0.1% (v/v) Brij 35. The mixture was incubated at 37° C. for 60 min, the reaction stopped by the addition of 40 μl of 250 mM acetic acid and the fluorescence determined with excitation at 360 nm and emitted light measured at 460 nm.
In this table, the linked cyclitol compound identifications are the same as those given in Section A above where the structures of the compounds are also given. With regard to the purity rating, a greater number of asterisks signifies a greater degree of purity with five asterisks signifying an essentially pure compound. The cathepsin G inhibition data are the concentrations of compounds required to inhibit the enzyme by 50%.

[2] = molecular target: T2, human platelet heparanase (Homo sapiens, UniProt Q9Y251); experiment: Heparanase inhibition, 3H-radiolabelled HS cleavage assay; assay type: biochemical; settings: for inhibition: based on a comparison with heparin with 100% inhibition at 30 μg/ml, read-out: Relative inhibition (%); for EC50: heparanase inhibition, read-out: EC50 (converted); for inhibition at 10 µg/mL: read-out: Inhibition (%) at 10 μg/ml
T2 construct: 10 ng of purified human platelet heparanase; from tissue; host or cells: human platelets
T2 sequence (Q9Y251 158-543 limits assumed): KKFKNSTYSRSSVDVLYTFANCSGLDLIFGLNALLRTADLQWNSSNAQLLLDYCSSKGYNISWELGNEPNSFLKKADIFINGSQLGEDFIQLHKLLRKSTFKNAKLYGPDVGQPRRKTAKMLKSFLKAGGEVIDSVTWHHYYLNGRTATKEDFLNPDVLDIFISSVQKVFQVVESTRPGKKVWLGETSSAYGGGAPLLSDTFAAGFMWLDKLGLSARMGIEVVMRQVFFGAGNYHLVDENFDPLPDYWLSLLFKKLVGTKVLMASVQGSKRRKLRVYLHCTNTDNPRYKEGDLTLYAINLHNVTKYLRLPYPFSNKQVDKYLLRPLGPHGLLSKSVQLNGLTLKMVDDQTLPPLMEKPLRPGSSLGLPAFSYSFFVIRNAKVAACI
T2 sequence (Q9Y251 36-109 limits assumed): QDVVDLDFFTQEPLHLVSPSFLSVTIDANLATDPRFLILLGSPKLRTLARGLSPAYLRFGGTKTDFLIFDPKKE
Method: Briefly, to an incubation mixture of […] containing ^3H-radiolabelled porcine mucosal HS […], 50 mM-sodium acetate buffer, pH 5.0, […] bovine serum albumin and the inhibitor to be tested, was added 10 ng of purified human platelet heparanase and the mixture incubated for 30 min. The reaction was terminated by freezing the assay tubes. The substrate was separated from the cleavage products on minicolumns of sepharose-bound histidine-rich glycoprotein (Freeman, C., and Parish, C. R. [1997], supra).
Inhibitory activity is based on a comparison with heparin with 100% inhibition at 30 μg/ml. The compounds were also tested at the same purity as in Example 15.

[3] = molecular target: bFGF (Homo sapiens, UniProt P09038); experiment: Biacore biosensor: inhibition of bFGF binding to immobilised heparin and heparan sulfate; settings: inhibitor 0.034 μM, bFGF 0.034 μM
bFGF, sequence (P09038 134-288 limits assumed, species assumed): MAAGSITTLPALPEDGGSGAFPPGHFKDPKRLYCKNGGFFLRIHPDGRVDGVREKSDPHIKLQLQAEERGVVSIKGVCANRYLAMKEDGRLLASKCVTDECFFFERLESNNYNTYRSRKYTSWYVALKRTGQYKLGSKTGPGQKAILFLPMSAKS
Method: (§1) Assays were performed using a Biacore™ 2000 optical biosensor obtained from Biacore AB, Uppsala, Sweden. The biosensor was operated in accordance with the manufacturer's instructions. Briefly, neutravidin was covalently coupled to the surface of CM5 chips of the biosensor and then either biotinylated heparin (1 μg/ml) or biotinylated heparan sulfate ([…]) bound to the immobilised neutravidin. Mixtures of a test compound and a growth factor or other effector compound were preincubated for 2 to 5 minutes and the mixtures then added to individual biosensor cuvettes. Binding of growth factor or effector compound to the heparin or heparan sulfate was then monitored for approximately 5 minutes with the biosensor.
(§2) The tabulated values are the IC50 in μM or % inhibition of binding of the growth factor to the immobilised heparan sulfate (HS) or heparin.

[4] = molecular target: aFGF (Homo sapiens, UniProt P05230); experiment: Biacore biosensor: inhibition of aFGF binding to immobilised heparin and heparan sulfate; settings: inhibitor 0.034 μM, aFGF 0.025 μM
aFGF, sequence (P05230 whole entry, species assumed): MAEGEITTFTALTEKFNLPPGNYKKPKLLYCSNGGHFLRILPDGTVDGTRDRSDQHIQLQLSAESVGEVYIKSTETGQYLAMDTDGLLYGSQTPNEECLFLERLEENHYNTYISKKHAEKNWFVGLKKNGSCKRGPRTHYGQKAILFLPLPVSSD
Method: as §1, §2

[5] = molecular target: T3, VEGF (Homo sapiens, UniProt P15692); experiment: Biacore biosensor: inhibition of VEGF binding to immobilised heparin and heparan sulfate; settings: inhibitor 0.034 μM, VEGF 0.025 μM
T3 sequence (P15692 27-191 isoform P15692-4): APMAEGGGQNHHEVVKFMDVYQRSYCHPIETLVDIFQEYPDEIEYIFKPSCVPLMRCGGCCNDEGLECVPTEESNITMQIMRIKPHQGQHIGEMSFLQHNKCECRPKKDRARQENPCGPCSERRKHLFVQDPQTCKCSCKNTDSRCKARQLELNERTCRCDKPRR
Method: as §1, §2

[6] = molecular target: T4, IL-8 (Homo sapiens, UniProt P10145); experiment: Biacore biosensor: inhibition of IL-8 binding to immobilised heparin and heparan sulfate; settings: inhibitor 1.0 μM, IL-8 0.068 μM
T4 sequence (P10145 21-99): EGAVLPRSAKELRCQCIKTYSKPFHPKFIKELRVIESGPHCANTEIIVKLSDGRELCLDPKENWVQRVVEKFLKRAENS
Method: as §1

[7] = immobilised heparan sulfate, read-out: Inhibition of binding of bFGF (HS)
[8] = immobilised heparin, read-out: Inhibition of binding of bFGF (Hep)
[9] = immobilised heparan sulfate, read-out: Inhibition of binding of aFGF (HS)
[10] = immobilised heparin, read-out: Inhibition of binding of aFGF (Hep)
[11] = immobilised heparan sulfate, read-out: Inhibition of binding of VEGF (HS)
[12] = immobilised heparin, read-out: Inhibition of binding of VEGF (Hep)
[13] = immobilised heparan sulfate, read-out: Inhibition of binding of IL-8 (HS)
[14] = immobilised heparin, read-out: Inhibition of binding of IL-8 (Hep)

Row | Structure (SMILES) | IC50 [1] [nM] | inhibition [2] [%] | EC50 [2] [nM] | inhibition at 10 µg/mL [2] [%] | inhibition at 0.034 µM [3, 7] [%] | inhibition at 0.034 µM [3, 8] [%] | inhibition at 0.034 µM [4, 9] [%] | inhibition at 0.034 µM [4, 10] [%] | inhibition at 0.034 µM [5, 11] [%] | inhibition at 0.034 µM [5, 12] [%] | inhibition at 1 µM [6, 13] [%] | inhibition at 1 µM [6, 14] [%]
1 | O=S(=O)(O)O[C@H]1[C@H](OS(=O)(=O)O)[C@@H](N(CCCCCCCN([C@H]2C=C[C@@H](OS(=O)(=O)O)[C@@H](OS(=O)(=O)O)[C@@H]2OS(=O)(=O)O)[C@H]2C=C[C@@H](OS(=O)(=O)O)[C@@H](OS(=O)(=O)O)[C@@H]2OS(=O)(=O)O)[C@H]2C=C[C@@H](OS(=O)(=O)O)[C@@H](OS(=O)(=O)O)[C@@H]2OS(=O)(=O)O)C=C[C@H]1OS(=O)(=O)O [Compound 4h] | 318 | 48 | 20000 | 33 | 48 | 40 | 30 | 28 | 55 | 68 | 54 | 52
2 | O=S(=O)(O)O[C@H]1[C@H](OS(=O)(=O)O)[C@@H](N(CCCCCCCCN([C@H]2C=C[C@@H](OS(=O)(=O)O)[C@@H](OS(=O)(=O)O)[C@@H]2OS(=O)(=O)O)[C@H]2C=C[C@@H](OS(=O)(=O)O)[C@@H](OS(=O)(=O)O)[C@@H]2OS(=O)(=O)O)[C@H]2C=C[C@@H](OS(=O)(=O)O)[C@@H](OS(=O)(=O)O)[C@@H]2OS(=O)(=O)O)C=C[C@H]1OS(=O)(=O)O [Compound 4i] | 136 | 53 | 16100 | 39 | 51 | 45 | 28 | 30 | 71 | 70 | 89 | 95
3 | O=S(=O)(O)O[C@H]1[C@H](OS(=O)(=O)O)[C@@H](N(CCCCCCCCCN([C@H]2C=C[C@@H](OS(=O)(=O)O)[C@@H](OS(=O)(=O)O)[C@@H]2OS(=O)(=O)O)[C@H]2C=C[C@@H](OS(=O)(=O)O)[C@@H](OS(=O)(=O)O)[C@@H]2OS(=O)(=O)O)[C@H]2C=C[C@@H](OS(=O)(=O)O)[C@@H](OS(=O)(=O)O)[C@@H]2OS(=O)(=O)O)C=C[C@H]1OS(=O)(=O)O [Compound 4j] | 91.9 | 73 | 6130 |  | 43 | 46 | 31 | 31 | 54 | 64 | 65 | 62

The remaining lines, values ahead:

Row | IC50 [1] [nM] | inhibition [2] [%] | EC50 [2] [nM] | inhibition at 10 µg/mL [2] [%] | inhibition at 0.034 µM [3, 7] [%] | inhibition at 0.034 µM [3, 8] [%] | inhibition at 0.034 µM [4, 9] [%] | inhibition at 0.034 µM [4, 10] [%] | inhibition at 0.034 µM [5, 11] [%] | inhibition at 0.034 µM [5, 12] [%] | inhibition at 1 µM [6, 13] [%] | inhibition at 1 µM [6, 14] [%] | Structure (SMILES)
4 | 133 | 50 |  | 39 | 45 | 36 | 39 | 43 | 30 | 41 | 54 | 67 | O=S(=O)(O)O[C@H]1[C@H](OS(=O)(=O)O)[C@@H](N(CCCCCN([C@H]2C=C[C@@H](OS(=O)(=O)O)[C@@H](OS(=O)(=O)O)[C@@H]2OS(=O)(=O)O)[C@H]2C=C[C@@H](OS(=O)(=O)O)[C@@H](OS(=O)(=O)O)[C@@H]2OS(=O)(=O)O)[C@H]2C=C[C@@H](OS(=O)(=O)O)[C@@H](OS(=O)(=O)O)[C@@H]2OS(=O)(=O)O)C=C[C@H]1OS(=O)(=O)O [Compound 4k]
5 | 292 | 48 | 17000 |  | 43 | 34 | 47 | 54 | 0 | 0 | 46 | 52 | O=S(=O)(O)OC(CN([C@H]1C=C[C@@H](OS(=O)(=O)O)[C@@H](OS(=O)(=O)O)[C@@H]1OS(=O)(=O)O)[C@H]1C=C[C@@H](OS(=O)(=O)O)[C@@H](OS(=O)(=O)O)[C@@H]1OS(=O)(=O)O)CN([C@H]1C=C[C@@H](OS(=O)(=O)O)[C@@H](OS(=O)(=O)O)[C@@H]1OS(=O)(=O)O)[C@H]1C=C[C@@H](OS(=O)(=O)O)[C@@H](OS(=O)(=O)O)[C@@H]1OS(=O)(=O)O [Compound 4l]
